Data as given in ChEMBL document CHEMBL1201862, “PubChem BioAssay data set” (2004).
Calls of active or inactive are those of the source.

Columns and labels:
[1] = system: Escherichia coli; assay: microbe, parasite or virus in culture
[2] = inhibitors of clade B AD8 Env fusion, dose response, cell-based, cherry-pick (AID 652062); assay type: functional;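 also: luciferase signal from cell-cell fusion driven by HIV-1 clade B AD8 Env; potency is for inhibitors of fusion seen as a drop in luminescence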
[3] = biological target: CAAX prenyl protease 2 (Homo sapiens, UniProt Q9Y256); assay: human Rce1 protease inhibitors, dose response, biochemical, yeast membranes, quenched-peptide fluorescence, cherry-pick (AID 588849)
[4] = inhibitors of HIV Env-driven cell fusion, dose response, cherry-pick (AID 652057); assay type: functional, cell-based
[5] = off-target signal loss in HeLa-CEM21 co-culture – HeLa F-luc CTL cells, cherry-picked, counter-screen for HIV-1 Env fusion inhibitor project, dose response (AID 652040); assay type: functional, cell-based;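 also: potency for signal decrease marking cytotoxic or nonspecific inhibition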
[6] = biological target: Disintegrin and metalloproteinase domain-containing protein 17 (Homo sapiens, UniProt P78536); assay: ADAM17 protease inhibitors, dose response, counter-screen for ADAM10 exosite inhibitor project, biochemical, quenched FRET substrate (AID 743253)
[7] = system: INS1; assay: beta cell apoptosis inhibitors, cytokine rescue, dose response, luminescence, retest (AID 449756); assay type: functional, cell-based; conditions: Rattus norvegicus;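 also: cell death triggered by IL-1 beta plus TNF-alpha plus IFN-gamma mixture; protective hits raise ATP signal compared with cytokine alone wells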
[8] = CEM21 lymphoblast cell cytotoxicity, dose response, cytotoxicity control for viral fusion inhibitor project, CellTiter-Glo luminescence, cherry-picked (AID 652042); assay type: functional, cell-based;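 also: potency for signal decrease meaning cytotoxicity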
[9] = ZM109 Env clade C HIV-1 fusion inhibitors, dose response, HeLa effector, CEM target cells, luciferase, cherry-pick (AID 652058); assay type: functional, cell-based
[10] = ADAM10 inhibitors, peptide cleavage, dose response, biochemical, QFRET (AID 743254);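 also: ADAM10 enzyme with the DM2 quenched FRET peptide as substrate; EDANS fluorescence gain as the protease cuts the substrate; inhibitor potency against ADAM10 proteolytic activity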
[11] = system: Escherichia coli; assay: microbe, parasite or virus in culture; remark: listed apart in the source
[12] = biological target: T1, Dual specificity protein phosphatase 6 (Rattus norvegicus, UniProt Q64346); assay type: functional
T1 sequence (Q64346 whole entry): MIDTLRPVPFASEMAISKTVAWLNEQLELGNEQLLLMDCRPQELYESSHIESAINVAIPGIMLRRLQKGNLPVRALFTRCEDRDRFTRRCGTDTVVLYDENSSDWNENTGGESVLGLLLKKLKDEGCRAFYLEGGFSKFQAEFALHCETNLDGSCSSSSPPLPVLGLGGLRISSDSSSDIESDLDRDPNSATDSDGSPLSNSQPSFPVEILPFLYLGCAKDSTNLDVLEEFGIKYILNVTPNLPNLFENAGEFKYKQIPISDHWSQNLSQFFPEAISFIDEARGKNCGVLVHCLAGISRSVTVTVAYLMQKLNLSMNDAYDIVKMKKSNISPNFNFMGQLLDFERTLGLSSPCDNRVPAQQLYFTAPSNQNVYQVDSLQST

[13] = biological target: T1, Dual specificity protein phosphatase 6
[14] = biological target: Glyceraldehyde-3-phosphate dehydrogenase (Homo sapiens, UniProt P04406)
[15] = biological target: T2, Tyrosine-protein phosphatase non-receptor type 7 (Homo sapiens, UniProt P35236); assay type: functional
T2 sequence (P35236 whole entry): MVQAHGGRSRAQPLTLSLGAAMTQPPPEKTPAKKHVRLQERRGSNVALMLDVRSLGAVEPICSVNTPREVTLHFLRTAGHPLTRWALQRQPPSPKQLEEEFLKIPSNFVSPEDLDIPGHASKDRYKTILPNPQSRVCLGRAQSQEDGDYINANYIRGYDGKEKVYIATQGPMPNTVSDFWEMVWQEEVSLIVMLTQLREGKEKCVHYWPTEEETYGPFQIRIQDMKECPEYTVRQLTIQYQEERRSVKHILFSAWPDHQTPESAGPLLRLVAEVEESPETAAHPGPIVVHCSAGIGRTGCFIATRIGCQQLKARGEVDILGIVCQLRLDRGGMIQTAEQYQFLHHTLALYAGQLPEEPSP

[16] = cytotoxicity in HEK-293T NF-kB-Luc cells, dose response, cytotoxicity control for B/T-cell NF-kB inhibitor project, cell-based, uHTS hits (AID 489019); assay type: functional;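 also: IC50 reflects cytotoxicity as loss of cell viability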
[17] = system: Jurkat; assay: antigen receptor-induced NF-kB inhibitors, dose response, Jurkat, luciferase reporter, luminescence, B- and T-cell (AID 489004); assay type: functional, cell-based; conditions: Homo sapiens;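 also: NF-kB luciferase reporter Jurkat cells stimulated with PMA plus ionomycin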
[18] = biological target: Galanin receptor type 3 (Homo sapiens, UniProt O60755); assay: Fluorescence-based cell-based primary high throughput dose response assay to identify antagonists of the Galanin Receptor 3 (GalR3).; assay type: functional
[19] = cells; assay type: functional, cell-based; conditions: HEK-CNG
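For EC50 in this document: target is galanin receptor GalR3 read with a cAMP biosensor in HEK293 cells.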

Sequence of Disintegrin and metalloproteinase domain-containing protein 17 (P78536 whole entry, the tested form may be a part): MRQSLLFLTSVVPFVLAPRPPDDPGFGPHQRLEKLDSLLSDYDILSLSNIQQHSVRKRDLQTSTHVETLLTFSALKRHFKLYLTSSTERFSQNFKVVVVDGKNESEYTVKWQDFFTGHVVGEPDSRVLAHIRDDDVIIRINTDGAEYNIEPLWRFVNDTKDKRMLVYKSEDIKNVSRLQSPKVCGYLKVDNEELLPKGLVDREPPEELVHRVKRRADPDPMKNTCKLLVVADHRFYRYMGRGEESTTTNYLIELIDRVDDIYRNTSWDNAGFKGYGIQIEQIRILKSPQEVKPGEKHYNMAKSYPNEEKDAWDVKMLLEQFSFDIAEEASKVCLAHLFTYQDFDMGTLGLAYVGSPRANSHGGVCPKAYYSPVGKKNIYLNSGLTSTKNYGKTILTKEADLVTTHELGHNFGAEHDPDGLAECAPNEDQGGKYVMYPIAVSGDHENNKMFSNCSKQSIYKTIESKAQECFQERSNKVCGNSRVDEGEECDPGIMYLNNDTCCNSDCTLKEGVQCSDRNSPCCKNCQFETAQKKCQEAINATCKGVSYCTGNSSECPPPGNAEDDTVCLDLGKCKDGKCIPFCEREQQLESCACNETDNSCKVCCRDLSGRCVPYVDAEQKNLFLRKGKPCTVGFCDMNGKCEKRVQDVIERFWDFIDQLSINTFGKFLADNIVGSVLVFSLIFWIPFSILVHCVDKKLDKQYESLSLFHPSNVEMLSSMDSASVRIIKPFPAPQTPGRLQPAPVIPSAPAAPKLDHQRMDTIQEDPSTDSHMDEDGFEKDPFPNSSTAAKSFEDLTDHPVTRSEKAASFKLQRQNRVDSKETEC
Sequence of CAAX prenyl protease 2 (Q9Y256 whole entry, the tested form may be a part): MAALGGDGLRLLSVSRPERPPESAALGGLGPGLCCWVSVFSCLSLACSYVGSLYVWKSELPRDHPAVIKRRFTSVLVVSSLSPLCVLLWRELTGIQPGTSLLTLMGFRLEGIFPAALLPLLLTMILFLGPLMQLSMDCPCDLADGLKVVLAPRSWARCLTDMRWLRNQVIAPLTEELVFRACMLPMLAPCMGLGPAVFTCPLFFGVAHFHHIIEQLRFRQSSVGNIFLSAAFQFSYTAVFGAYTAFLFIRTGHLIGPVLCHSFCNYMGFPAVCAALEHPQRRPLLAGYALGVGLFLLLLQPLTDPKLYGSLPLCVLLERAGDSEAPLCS
Sequence of Glyceraldehyde-3-phosphate dehydrogenase (P04406 whole entry): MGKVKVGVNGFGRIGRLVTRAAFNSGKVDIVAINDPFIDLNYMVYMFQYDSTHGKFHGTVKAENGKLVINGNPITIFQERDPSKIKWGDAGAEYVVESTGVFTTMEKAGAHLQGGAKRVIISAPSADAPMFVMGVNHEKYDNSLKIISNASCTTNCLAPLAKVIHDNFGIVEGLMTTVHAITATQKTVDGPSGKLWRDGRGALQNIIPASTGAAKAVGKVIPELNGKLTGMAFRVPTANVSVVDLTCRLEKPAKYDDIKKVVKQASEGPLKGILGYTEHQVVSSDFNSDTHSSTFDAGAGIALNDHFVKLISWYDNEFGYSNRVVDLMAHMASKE
Sequence of Galanin receptor type 3 (O60755 whole entry): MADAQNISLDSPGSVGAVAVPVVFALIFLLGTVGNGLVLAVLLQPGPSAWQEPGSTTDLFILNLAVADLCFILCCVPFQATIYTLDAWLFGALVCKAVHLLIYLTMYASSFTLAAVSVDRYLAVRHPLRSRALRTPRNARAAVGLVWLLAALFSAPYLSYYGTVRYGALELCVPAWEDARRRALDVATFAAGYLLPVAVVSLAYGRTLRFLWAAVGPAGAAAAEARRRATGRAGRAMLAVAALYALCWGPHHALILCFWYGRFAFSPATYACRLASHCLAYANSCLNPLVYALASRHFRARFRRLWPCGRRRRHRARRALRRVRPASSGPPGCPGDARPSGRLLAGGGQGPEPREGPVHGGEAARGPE

With `CO[C@H]1/C=C\O[C@@]2(C)Oc3c(C)c(O)c4c(O)c(c5c(c4c3C2=O)=NC2(CCN(CC(C)C)CC2)N=5)NC(=O)/C(C)=C\C=C/[C@H](C)[C@H](O)[C@@H](C)[C@@H](O)[C@@H](C)[C@H](OC(C)=O)[C@@H]1C` as the compound, how does the AC50 [1] read?
The AC50 was 15.9 µM (active).

What does the source list for `COc1ccccc1NC(=O)CN(c1ccc(C23CC4CC(CC(C4)C2)C3)cc1)S(C)(=O)=O`?
AC50 [2]: 8.59 µM (active); AC50 [3]: 40.9 µM (active); AC50 [4]: 4.53 µM (active); AC50 [5]: 8.12 µM (active); IC50 [6]: > 69.5 µM (inactive); AC50 [7]: 4.49 µM (active); AC50 [8]: 47 µM (active); AC50 [9]: 3.45 µM (active); IC50 [10]: > 69.5 µM (inactive)

For `CCOC(=O)C(NC(C)=O)(Nc1ccc(F)cc1)C(F)(F)F` (stereo unspecified), which AC50 [11] is on record?
Its AC50 is 36.2 µM (active).

And the AC50 [1]?
The AC50 was 74.8 µM (active).

For `Cn1ncc(Cl)c1C(=O)NCc1ccc(Cl)cc1`, which AC50 [11] is on record?
Its AC50 is 22.7 µM (active).

Which results are given for `COc1ccc(-n2c(=O)nc(NCCc3cccc(Cl)c3)[nH]c2=O)cc1`?
IC50 [12]: > 100 µM (inactive); IC50 [13]: > 100 µM (inactive); IC50 [14]: > 100 µM (not active); IC50 [15]: > 100 µM (not active)

Which results are given for `COc1cc2c(cc1OC)[C@@H]1C(=O)c3ccc4c(c3O[C@@H]1CO2)C[C@H](C(C)C)O4`?
IC50 [16]: > 80 µM (inactive); IC50 [17]: > 80 µM (inactive); IC50 [18]: 0.0154 µM (active); EC50 [19]: > 29.9 µM (inactive)
